# Source: article PMC12196810, “A Dual Bioassay for Evaluation of Embryotoxicity and Acute Toxicity of Common Solvents and Surfactants in Artemia salina” (Toxics, 2025)
# “Also recorded” adds a separate entry of the source.
# Experiments:
# Artemia salina nauplii = experiment: Brine shrimp lethality test; details: for toxicity in the lethality test, in words: 24 and 48 h, 0.05–5% (w/v); for LC50: nauplii, 0.05–5.0% (w/v) tested; for LC50 values: both timepoints (24 and 48 h), summary statement
# Description: Artemia salina cysts were hatched in beakers filled with artificial sea water at a salinity of 35 g/L, under continuous aeration, and at a temperature of 25 ± 1 °C for 48 h and a light/dark cycle of 16/8 h. The constant conditions were maintained using a plant growth chamber (Sanyo MLR-351 H, San Diego, CA, USA). After hatching, the Artemia nauplii were separated and brought in aerated fresh artificial sea water. A number of ten nauplii were added in tissue culture plates containing 24 wells (Greiner Bio-One, Kremsmünster, Austria), along with the tested solutions [29, 30]. […] Artificial sea water was used as negative control and sodium lauryl sulfate as positive control. The artificial seawater was prepared according to the instructions provided by the Artemia egg manufacturer, using the supplied salts dissolved in distilled water. A total of 5 L was prepared, aerated, and stored at 4 °C, in dark for no more than two weeks. Before use, the artificial seawater was aerated again. […] The lethality values were calculated and were plotted against the logarithm of concentrations, using the least square fit method to obtain lethality curves. […] The photographs were taken using an ODC 825 Microscope Digital Camera (KERN, Balingen, Germany), with a resolution of 5.1 MP and a 1/2.5″ Aptina CMOS sensor, and processed using Microscope-VIS software 2.0 (KERN Balingen, Germany).
# Artemia salina cysts [1] = experiment: Hatching inhibition test; format: in vivo; details: for IC50 (hatching inhibition): cysts, 0.1–2.5% (w/v) tested; for inhibition of hatching, in words: 0.1–2.5%
# Description: SLS was used as positive control and artificial sea water as negative control. The determination was performed according to the protocols described in the literature, with some modifications.
# Each sample was performed in duplicate, and artificial sea water was used as control. The hatching process was monitored at 24 and 48 h, and stages 0 and Instar I–III were considered for the quantification. Randomization and blinding were not applied in the assays, as the evaluation of developmental stages is considered objective and unlikely to be influenced by observer bias. The inhibition of the hatching (HI) process was calculated versus the control using the formula presented by Rotini et al.. HI50 was calculated by interpolating on the curves plotted, using the logarithm of concentrations and the hatching inhibition (%) with the least square fit method.
# Artemia salina cysts [2] = experiment: Hatching and development of nauplii (stage groups A–D); format: in vivo; details: for individuals reaching Group D (Instar I–III): 48 h
# Description: Each sample was monitored using a stereo-microscope (STMLAB, Monza, Italy) and a bright-field microscope (Euromex, Bscope series, Groningen, The Netherlands) at both moments of determination. After 48 h, a mixture of ethanol and acetic acid in the ratio of 3:1 (v/v) was added to each sample to ensure the preservation for further observations. Depending on the development stage of each sample, the hatching process was divided into four main groups (A–D), and expressed as percents (%). The first group were the unhatched eggs (group A) that remain unchanged between the rehydration operation and the moment of observation; in the second group were the eggs with a broken shell (group B) with evident cracks and modified shape; the third category corresponds to the hatching moment, and it was noted as stage 0 (group C), when the nauplii are pear-shaped or umbrella-shaped and immobile; the fourth stage corresponds to larval stages that comprise the naupliar development stages Instar I–III (group D). All samples were compared to the untreated control to identify non-disruptive concentrations and solvent compatibility for future hatching assays.
# [3] = all concentrations (0.1–2.5%), 24 and 48 h
# [4] = 48 h, all concentrations (0.05–5%)
Compound,"toxicity in the lethality test, in words (Artemia salina nauplii)",LC50 (Artemia salina nauplii; 24 h exposure),"lethality (Artemia salina nauplii; 48 h, concentrations ≥ 1%)",LC50 (Artemia salina nauplii; 48 h exposure),"inhibition of hatching, in words (Artemia salina cysts [1]; 24 and 48 h)","effect on development, in words (Artemia salina cysts [2]; 0.1–2.5%, 24 and 48 h)",other results
"CCN(CC)C(=O)c1cccnc1 [DENA, N,N-diethylnicotinamide]",highly toxic,0.22%,100%,0.05%,–,–,"lethality (Artemia salina nauplii; 48 h, at 0.1%): 45%; IC50 (hatching inhibition) (Artemia salina cysts [1]; 24 h): 0.97%; IC50 (hatching inhibition) (Artemia salina cysts [1]; 48 h): 1.10%; inhibition of hatching (Artemia salina cysts [1]; at 2.5%): full inhibition; effect on development, in words (Artemia salina cysts [2]; at 2.5%): development was arrested in Groups A and B"
"CN(C)C(=O)c1ccccc1 [DMBA, N,N-dimethylbenzamide]",highly toxic,0.13%,100%,0.09%,–,–,"lethality (Artemia salina nauplii; 24 h, down to 0.5%): 100%; lethality (Artemia salina nauplii; 48 h, at 0.1%): 75%; LC50 values (Artemia salina nauplii): ≤ 1%; IC50 (hatching inhibition) (Artemia salina cysts [1]; 24 h): 0.27%; inhibition of hatching (Artemia salina cysts [1]; 24 h, high concentrations): exceeding 90%; IC50 (hatching inhibition) (Artemia salina cysts [1]; 48 h): 19.23%; effect on development, in words (Artemia salina cysts [2]; from 0.5% upward): no significant presence in Group D"
"CN(C)C=O [DMF, dimethylformamide]",moderate toxicity,1.24%,–,1.06%,–,–,"lethality (Artemia salina nauplii; 48 h, at 1%): up to 80%"
"C[S+](C)[O-] [DMSO, dimethyl sulfoxide]",moderate-to-low toxicity; also recorded: very low toxicity,–,–,–,very low or no inhibition; also recorded: minimal or no inhibition,very low developmental toxicity,"toxicity in the lethality test, in words (Artemia salina nauplii; listed as dimethyl sulfoxide): low toxicity; lethality (maximum) (Artemia salina nauplii; 24 h, at 0.1%): 25%; lethality (peak) (Artemia salina nauplii; 48 h, at 0.5%): 45%; embryos developed fully (Group D) (Artemia salina cysts [2]; at 2.5%): over 80%"
"CN(C)C(N)=O [DMU, N,N-dimethylurea]",moderate toxicity,0.94%,100%,0.08%,–,–,inhibition of hatching (Artemia salina cysts [1]; [3]): under 50%; individuals reaching Group D (Instar I–III) (Artemia salina cysts [2]; at 0.1%): over 80%
"OCC(O)CO [GLY, glycerol]",very low toxicity,–,–,–,very low or no inhibition; also recorded: minimal or no inhibition,negligible impact on development,"toxicity in the lethality test, in words (Artemia salina nauplii; listed as Glycerin): low toxicity; lethality (Artemia salina nauplii; [4]): up to 40%"
"CC(O)CO (stereo not shown) [PDO, propylene glycol]",very low toxicity,–,–,1.64%,very low or no inhibition; also recorded: minimal or no inhibition,minimal interference,"toxicity in the lethality test, in words (Artemia salina nauplii; listed as propylene glycol): low toxicity; lethality (Artemia salina nauplii; 48 h, highest concentration (5%)): 95%"
"Cc1ccc(S(=O)(=O)O)cc1.[Na] [PTS, sodium p-toluenesulfonate]",highly toxic,–,100%,–,–,–,"lethality (Artemia salina nauplii; 24 h, highest concentration (5%)): 100%; lethality (Artemia salina nauplii; 48 h, at 0.1%): 90%; LC50 values (Artemia salina nauplii): ≤ 1%; IC50 (hatching inhibition) (Artemia salina cysts [1]; 24 h): ~2.49%; inhibition of hatching (Artemia salina cysts [1]; at 2.5%): strong suppression; individuals reaching Group D (Instar I–III) (Artemia salina cysts [2]; at 1%): over 60%; effect on development, in words (Artemia salina cysts [2]; at 2.5%): Groups A and B became dominant"
"O=S(=O)([O-])c1cccc(S(=O)(=O)[O-])c1.[Na+].[Na+] [SBDS, sodium benzene-1,3-disulfonate]",–,–,–,–,–,low impact on embryonic development,inhibition of hatching (Artemia salina cysts [1]; [3]): under 50%
"O=S(=O)([O-])c1ccccc1.[Na+] [SBS, sodium benzenesulfonate]",moderate toxicity,0.93%,100%,0.21%,only moderate suppression,moderate developmental delay,–
"CCCCCCCCCCCCOS(=O)(=O)[O-].[Na+] [SLS, sodium lauryl sulfate, reference compound]",highly toxic; also recorded: such high mortality at all tested concentrations,–,–,–,complete or near complete inhibition,complete developmental arrest,"lethality (Artemia salina nauplii; 24 h, across all concentrations (0.05–5%)): 100%; lethality (Artemia salina nauplii; [4]): 100%"
"NC(N)=O [Urea, urea]",moderate toxicity,1.11%,–,0.74%,–,–,"inhibition of hatching (Artemia salina cysts [1]; [3]): under 50%; effect on development, in words (Artemia salina cysts [2]; at 2.5%): some developmental delay"
Tween 20,such high mortality at all tested concentrations,–,–,–,–,–,–
Tween 80,such high mortality at all tested concentrations,–,–,–,–,–,–
sodium xylenesulfonate [SXS],–,1.01%,100%,0.79%,–,–,"LC50 values (Artemia salina nauplii): ≤ 1%; IC50 (hatching inhibition) (Artemia salina cysts [1]; 24 h): 0.28%; IC50 (hatching inhibition) (Artemia salina cysts [1]; 48 h): 0.41%; inhibition of hatching (Artemia salina cysts [1]; at 2.5%): 100%; effect on development, in words (Artemia salina cysts [2]; at 2.5%): no development beyond Group B occurred"
